In patent US20260256751A1, “COMBINATION OF BETA-2-ADRENERGIC RECEPTOR AGONISTS AND GLP-1 RECEPTOR AGONISTS FOR USE IN TREATING HYPERGLYCAEMIA” (ATROGI AB, priority 2023, published 2026):

Experiments:
[1] = tested on: differentiated L6-myotubes; experiment: cAMP production relative to isoprenaline (Biological example 2 of WO 2019/053427); assay type: cell-based; conditions: 0.25 h, compound at 10 μM, activity relative to isoproterenol at 10 μM
In short: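 Differentiated L6 myotubes stimulated 15 min with test compound or isoprenaline, each at final 1×10^−5 M, in HBSS with 1% BSA, 5 mM HEPES, 1 mM IBMX, pH 7.4. cAMP production by the compound expressed relative to that induced by the same concentration of isoprenaline.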

[2] = tested on: differentiated L6-myotubes; experiment: Glucose uptake screen (Biological example 1 of WO 2019/053427); assay type: cell-based; conditions: compound at 10 μM, activity relative to isoproterenol at 10 μM, read-out: Biological example 1 of WO 2019/053427 (GU)
In short: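 Rat L6 myoblasts were differentiated into myotubes over 7 days in 2% FBS, then serum-starved overnight. Cells were stimulated with 1×10^−5 M compound plus β2 antagonist ICI-118551 for 1 h 40 min and re-dosed for 20 min in glucose-free medium. Uptake of 50 nM ^3H-2-deoxyglucose over 10 min was counted after NaOH lysis.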

SMILES | Emax at 10 µM [1] [%] | Emax at 10 µM [2] [%]
O[C@@H](c1cccc(F)c1)C12CCC(CCc3cccnc3)(CC1)N2 [Compound 445, (S)-(m-fluorophenyl){4-[2-(3-pyridyl)ethyl]-7-azabicyclo[2.2.1]hept-1-yl}methanol] | < 25 | > 75
O[C@@H](c1ccccc1F)C12CCC(CCc3cccnc3)(CC1)N2 [Compound 547, (S)-(o-fluorophenyl){4-[2-(3-pyridyl)ethyl]-7-azabicyclo[2.2.1]hept-1-yl}methanol] | < 25 | > 75
CC1(C)C[C@@H]([C@H](O)c2cccc(F)c2)N1 [Compound 200, (R)-[(S)-4,4-dimethyl-2-azetidinyl](m-fluorophenyl)methanol] | < 25 | < 25
CC1(C)CCC[C@@H]([C@H](O)c2cccc(F)c2)N1 [Compound 190, (R)-[(S)-6,6-dimethyl-2-piperidyl](m-fluorophenyl)methanol] | < 25 | > 75
CC(=O)N[C@H]1CC[C@H](CC(C)(C)NC[C@H](O)c2cncc(F)c2)CC1 [Compound 357, N-[(1R,4r)-4-{2-[(R)-2-(5-fluoro-3-pyridyl)-2-hydroxyethylamino]-2-methylpropyl}cyclohexyl]acetamide] | < 25 | > 75
CC(=O)N(C)[C@H]1CC[C@@H](CC(C)(C)NC[C@H](O)c2cccc(F)c2)CC1 [Compound 492, N-[(1S,4s)-4-{2-[(R)-2-(m-fluorophenyl)-2-hydroxyethylamino]-2-methylpropyl}cyclohexyl]-N-methylacetamide] | < 25 | 25 to 50
CC(C)(C[C@H]1CC[C@H](NC(=O)C2CC2)CC1)NC[C@H](O)c1cccc(F)c1 [Compound 432, N-[(1R,4r)-4-{2-[(R)-2-(m-fluorophenyl)-2-hydroxyethylamino]-2-methylpropyl}cyclohexyl]cyclopropanecarboxmaide] | > 75 | > 75
CC(C)(CC[C@H]1CC[C@@H](O)CC1)NC[C@H](O)c1cccc(F)c1 [Compound 295, (R)-2-{1,1-dimethyl-3-[(1s,4R)-4-hydroxycyclohexyl]propylamino}-1-(m-fluorophenyl)-1-ethanol] | < 25 | > 75
CCC[C@@H]1CC[C@@H]([C@@H](O)c2cccc(F)c2)N1 [Compound 133, (S)-[(2S,5R)-5-propyl-2-pyrrolidinyl](m-fluorophenyl)methanol] | < 25 | 50 to 75
CS(=O)(=O)N[C@H]1CC[C@H](C[C@@H]2CC[C@H]([C@@H](O)c3cccc(F)c3)N2)CC1 [Compound 505, (S)-[(2R,5S)-5-{[(1r,4S)-4-(mesylamino)cyclohexyl]methyl}-2-pyrrolidinyl](m-fluorophenyl)methanol] | < 25 | < 25
CC1(C)CC[C@H]([C@H](O)c2cccc(O)c2)N1 [Compound 112, m-{(R)-[(R)-5,5-dimethyl-2-pyrrolidinyl]hydroxymeth-yl}phenol] | < 25 | > 75
CC1(C)CC[C@H]([C@@H](O)c2cc(F)c(N)c(F)c2)N1 [Compound 236, (S)-[(R)-5,5-dimethyl-2-pyrrolidinyl](4-amino-3,5-difluorophenyl)methanol] | 25 to 50 | > 75
CC(C)(C[C@H]1CC[C@@H](NC(=O)C(C)(C)C)CC1)NC[C@H](O)c1cccc(F)c1 [Compound 455, N-[(1S,4s)-4-{2-[(R)-2-(m-fluorophenyl)-2-hydroxyethylamino]-2-methylpropyl}cyclohexyl]2,2-dimethylpropionamide] | < 25 | 50 to 75
CC(C)(CC[C@H]1CC[C@@H](C(=O)O)CC1)NC[C@H](O)c1cncc(F)c1 [Compound 347, (1S,4s)-4-{3-[(R)-2-(5-fluoro-3-pyridyl)-2-hydroxyethylamino]-3-methylbutyl}cyclohexanecarboxylic acid] | < 25 | > 75
